This is an account of results in patent US20220332758A1, “PEPTIDE-BASED COMPOSITIONS AND METHODS FOR TREATING ALZHEIMER'S DISEASE” (Board of Regents, The Universityof Texas System, priority 2019, published 2022).

Entries after “also recorded” stand apart in the source; their conditions may differ.

The target of assay [1] is T1, α face pockets of the 20S core proteasome (Homo sapiens, UniProt P25787+P60900).
T1 construct: purified from erythrocytes; purchased Boston Biochem, Inc. or Enzo Life Sciences, Inc; host or cells: human erythrocytes
Nature of the assay: Competition of TAT peptides with Rpt C-terminal tail peptides for α face pockets (ChT-L activity of 20S). The settings on record: for enhanced activation with Rpt tails: 1 μM Rpt peptide; for competition with Rpt tail peptides: 1 μM Rpt peptide added before the TAT peptide. It is filed as biochemical. From the text:
As mentioned herein, the binding pockets on the α face accept “anchors” from natural protein ligands of the 20S core. […] The 10-residue Rpt-derived C-terminal “tail” peptides (“Rpt peptides”) can be used as competitors with the Rpt subunits or with small allosteric ligands. Importantly, the Rpt peptides interject between the subunits with their C-termini, whereas TAT peptides, according to the modeling, use their N-termini for this purpose. To test the specificity of interactions between TAT compounds and the α face, competition experiments were performed. The 20S core was challenged with selected TAT compounds after treatment with Rpt peptides. Peptides of Rpt2 ([…]; SEQ ID NO: 10), Rpt3 ([…]; SEQ ID NO: 11), Rpt5 ([…]; SEQ ID NO: 12) and Rpt6 ([…]; SEQ ID NO: 13) subunits were selected, docking in α3/α4, α1/α2, α5/α6 and α2/α3 pockets, respectively. Tails of Rpt2, 3, and 5 display the canonical HbYX motif, whereas the LeuTrpLys C-terminus of Rpt6 may be considered “pseudo-HbYX”, with a bulky Trp replacing Tyr. Results of the competition experiments are presented as radar plots in FIG. 15. […] This pocket also emerged as the major binding site for (1) and (8). However, these compounds likely weakly competed with the Rpt2 tail for binding to the α3/α4 pocket as well. The α3/α4 pocket seemed to be favored by (6). […] These complex patterns point at the importance of allosteric effects between the α face ligands, the gate and the catalytic chamber.
Determination of Proteasome Activity. Human housekeeping core (20S) proteasome purified from erythrocytes was purchased from Boston Biochem, Inc. (Cambridge, Mass.) or from Enzo Life Sciences, Inc. (Farmingdale, N.Y.). Multiple batches of the proteasomes were used and performed reproducibly. The stock proteasome was diluted to 0.2 mg/mL working solution in “dilution buffer” (50 mM Tris/HCl, pH 8, 20% glycerol). The following model peptide substrates, releasing fluorescent 7-amino-4-methylcoumarin (AMC) reporter group after cleavage, were used: succinyl-LeuLeuValTyr-AMC (SEQ ID NO: 14) (for the ChT-L peptidase; SucLLVY-AMC; Bachem Bioscience Inc., Philadelphia, Pa.), butoxycarbonyl-LeuArgArg-AMC (T-L; Bachem Bioscience Inc., Philadelphia, Pa.) and carbobenzoxy-LeuLeuGlu-AMC (PGPH; Enzo Life Sciences Inc., Farmingdale, N.Y.). The substrates were used at concentration of 50 μM (ChT-L) or 100 μM (T-L, PGPH). Free AMC (Sigma-Aldrich, St. Louis, Mo.) was used as the standard. The C-terminal peptides derived from Rpt2, Rpt3, Rpt5 and Rpt6 were synthesized (standard solid-phase peptide chemistry) and purified to at least 98% purity by GenScript (Piscataway, N.J.). The TAT peptides, Rpt peptides (except Rpt6) and the peptide substrates were dissolved in anhydrous dimethylsulfoxide (DMSO; Sigma-Aldrich, St. Louis, Mo.) and such stock solutions were stored at −20° C. The total concentration of DMSO in final reaction mixtures never exceeded 3% (vol/vol). The Trp (tryptophan)-containing Rpt6 peptide was dissolved in ultrapure water and stored at −20° C., protected from light. The reaction was carried out in 96-well plates, in 100 μL of reaction mixture that consisted of 45 mM Tris/HCl, pH 8, 100 mM KCl, 1 mM EDTA (reaction buffer) and a fluorogenic peptide substrate, to which 200 ng (nearly […]) of proteasome were added. The addition of KCl/EDTA (ethylenediaminetetraacetic acid) to reaction buffer assured latency of the core proteasome. The proteasome was preincubated with a substrate for 10 min at room temperature, then 1 μL of DMSO or a desired concentration of a TAT peptide in 1 μL of DMSO were added. After mixing, the plate was transferred to a Fluoroskan Ascent plate reader (Thermo Fisher Scientific Inc., Waltham, Mass.) for 1 h (37° C.), with fluorescence readouts once per minute. To test the competition with Rpt derived peptides, the Rpt peptide (1 μM) was added before the TAT peptide to the reaction mixture. […]

Assay [2] concerns the target T2, proteasome activity in W^1118 flies (Drosophila melanogaster, UniProt P40301+Q9XZJ4).
T2 construct: from tissue
Kind of assay: Proteasome activity in flies fed the compounds. It is filed as in vivo. The settings on record: fed for 10 days. Here is the method: Fly Lines and Strain Maintenance. UAS-ProsBeta5 (Staudt, N. et al. PLoS Genet 1, e55, doi:10.1371/journal.pgen.0010055 (2005)) and Elav-GS-GAL4; UAS-hAPP; UAS-hBACE1 (56756) stocks were obtained from the Bloomington Drosophila Stock Center (NIH P40OD018537). The lines were maintained on agar-cornmeal-dextrose-yeast growth media (Ren, C., Finkel, S. E. & Tower, J. Exp Gerontol 44, 228-235, doi:10.1016/j.exger.2008.10.002 (2009)) in a humidified 24° C. incubator with 12:12-hour light:dark cycle. The crosses were set up with female virgins of the respective GAL4 driver line and male UAS-ProsBeta5 or W^1118 flies. Progeny were collected within 48 hours of eclosion and allowed to mate on 10% sugar/yeast (SY10) media (Skorupa, D. A., et al. Aging Cell 7, 478-490, doi:10.1111/j.1474-9726.2008.00400.x (2008)) for another 48 hours. After this period, females were separated and sorted into sets of 25 flies per vial containing SY10 media supplemented either with 400 μM mifepristone (RU486) or ethanol vehicle, mixed directly into the food. 8 μM Blue Dye #1 was added to food containing RU486 for the purpose of identification. Carbon dioxide was used to briefly anesthetize flies for sorting. Flies were moved to vials of fresh media every two to three days.
Plate-based proteasome activity assay. […]

T2 sequence (Q9XZJ4 whole entry): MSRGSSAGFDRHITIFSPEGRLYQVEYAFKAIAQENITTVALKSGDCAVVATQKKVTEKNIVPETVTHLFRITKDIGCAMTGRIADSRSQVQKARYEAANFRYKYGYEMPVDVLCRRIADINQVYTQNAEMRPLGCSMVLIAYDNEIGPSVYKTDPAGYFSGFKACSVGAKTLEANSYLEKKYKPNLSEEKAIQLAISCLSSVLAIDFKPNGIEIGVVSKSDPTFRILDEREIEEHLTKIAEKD
T2 sequence (P40301 whole entry): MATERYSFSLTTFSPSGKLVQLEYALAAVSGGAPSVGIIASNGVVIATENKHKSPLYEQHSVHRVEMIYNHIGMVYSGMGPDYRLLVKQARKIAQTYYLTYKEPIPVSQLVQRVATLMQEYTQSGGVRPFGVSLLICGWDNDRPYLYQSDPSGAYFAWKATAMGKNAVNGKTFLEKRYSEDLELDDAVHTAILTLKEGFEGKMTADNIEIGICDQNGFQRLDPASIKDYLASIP

For `N=C(N)NCCCC(NC(=O)CN)C(=O)NC(CCCCN)C(=O)NC(CCCCN)C(=O)NC(CCCNC(=N)N)C(=O)NC(CCCNC(=N)N)C(=O)NC(CCC(N)=O)C(=O)N1Cc2ccccc2C[C@H]1C(=O)N1C(C(=O)NC(CCCNC(N)N)C(=O)N2CCCC2C(=O)NC(CO)C(=O)O)CC2CCCCC21` (stereo partly drawn) [(5), GRKKRRQ-TOD-RPS], in assay [1], the “enhanced activation with Rpt tails” value is reported as “enhanced activation in the presence of one of Rpt tails, namely Rpt5 or Rpt6” and the “competition with Rpt tail peptides” value is reported as “the Rpt3 peptide (α1/α2 pocket) was its sole competitor; also recorded: competed fairly specifically with Rpt3 tail”. Also, in assay [2], the “proteasome activity in flies” value is given as “enhance proteasome activity when fed to flies”.

Take `NCCCCC(N)C(=O)NC(CCCCN)C(=O)NC(CCCCN)C(=O)Nc1cc(NC(=O)C(CCCCN)NC(=O)C(CCCCN)NC(=O)C(N)CCCCN)cc(C(=O)NC(CCCCN)C(=O)NC(CCCCN)C(=O)NC(CCCCN)C(=O)O)c1` (stereo not drawn) [(8)]: in assay [1], the “enhanced activation with Rpt tails” value is “enhanced activation in the presence of one of Rpt tails, namely Rpt5 or Rpt6” and the “competition with Rpt tail peptides” value is “weakly negative score for the Rpt2 tail to the presumed major competitor Rpt3”. The “proteasome activity in flies” value in assay [2] was “enhance proteasome activity when fed to flies”.
